Assay results as given in PubChem BioAssay (NCI).
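Five compound concentrations were applied to cells in 96-well plates for 48 hours; endpoints were derived by simple linear interpolation of the resulting dose-response curve. GI50 marks 50% less growth. TGI denotes the concentration required for complete inhibition of growth.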

How the values were obtained:
Assay in all cases: NCI-60 cell line screen, 48 h
[1] = test system: A498 renal
[2] = test system: HCC-2998 colon
[3] = test system: HL-60(TB) leukemia
[4] = test system: HOP-62 NSCLC
[5] = test system: MDA-MB-231 breast
[6] = test system: NCI-H23 lung
[7] = test system: OVCAR-3 ovarian
[8] = test system: OVCAR-4 ovarian
[9] = test system: RXF 393 renal
[10] = test system: SK-OV-3 ovarian

Compound	TGI [1] [µM]	TGI [2] [µM]	TGI [3] [µM]	TGI [4] [µM]	TGI [5] [µM]	TGI [6] [µM]	TGI [7] [µM]	TGI [8] [µM]	TGI [9] [µM]	TGI [10] [µM]	GI50 [1] [µM]	GI50 [2] [µM]	GI50 [3] [µM]	GI50 [4] [µM]	GI50 [5] [µM]	GI50 [6] [µM]	GI50 [7] [µM]	GI50 [8] [µM]	GI50 [9] [µM]	GI50 [10] [µM]
COc1ccccc1NC(=O)CC(=O)N1N=C(N2c3ccccc3Sc3ccccc32)CC1c1ccccc1 (stereo not drawn)	> 100	> 100	> 100	> 100	> 100	> 100	> 100	> 100	> 100	> 100										
CC(C)(C)c1cc(OCc2nn3c(Cc4ccccc4)nnc3s2)c(Cl)cc1OCc1nn2c(Cc3ccccc3)nnc2s1	> 100	> 100	97.9	> 100	> 100	> 100	60.4	> 100	> 100	> 100										
COc1ccc(C2C(C#N)=C(S)N(C3OC(COC(C)=O)C(OC(C)=O)C(OC(C)=O)C3OC(C)=O)C(c3ccccc3)=C2C(C)=O)cc1 (stereo not drawn)	> 100	> 100	> 100	> 100	> 100	> 100	> 100	> 100	> 100											
C=CCN(CCNS(=O)(=O)c1ccc(C)cc1)S(=O)(=O)c1ccc(C)cc1	26.8	> 100	47.6	> 100	> 100	> 95.5	> 100	> 100	> 100	> 100										
Cc1n[nH]c(=O)n1/N=C\c1ccccc1	> 100	> 100	> 100	> 100	> 100	> 100	> 100	> 100	50.9											
COc1cc2c3c(n(C)c(=O)c2cc1OC)-c1cc2c(cc1/C3=C\CCCI)OCO2	> 93.3	> 100	> 100	> 100	> 100	> 100	> 100	> 100	> 100	> 100										
Cc1cc(S(=O)(=O)Nc2nnc3cnc4ccccc4n23)c(S)cc1Cl	> 100	> 100	> 100	> 100	> 100	> 100	> 100	> 100	> 100	> 100										
CCOC(=O)C(NC(=O)c1ccccc1)(N1CCN(c2cc3c(cc2F)c(=O)c(C(=O)O)cn3CC)CC1)C(F)(F)F (stereo not drawn)	65.2	> 100	43	> 100	82.9	> 100	> 100	> 100	> 100	79.5										
CCCCCCCCCCCCCCC(O)C[N+](C)(CCO)CCO (stereo not drawn)	22.6	3.51	2.71	10.3	3.76	20.7	12.1	17	4.36	30.7										
CC(=O)Oc1c(N2CCCCC2)c(C(=O)c2ccccc2)c(O)c2ccn(N(C)C)c12	29.1	37.2	29.5	93.2	30.6	38.5	74.7	58.2	48.4	65.4										
Cc1c(N=Nc2ccccc2)c(C)n(C2OC(CO)C(O)C(O)C2O)c(=S)c1C#N (stereo not drawn)	72.5	59.3	> 100	59.6	> 100	> 100	62.9	> 100	> 100	> 100										
Cc1nc(C)c(N2CCNCC2)c(=O)[nH]1	> 100	> 100	> 100	> 100	> 100	> 100	> 100	> 100	> 100	> 100										
COc1ccc2c3c([nH]c2c1)CCN(CCCC(=O)c1ccc(F)cc1)C3	29.7	17.7	33.2	27	31.2	34.8	32.9	32.2	28.5	36.6										
CC(C)=CCc1[nH]c2ccccc2c1C1=C(O)C(=O)C(c2c(CC=C(C)C)[nH]c3ccccc23)=C(O)C1=O	2.72	3.29	5.6	2.61	3.38	5.87	3.92	93.1	8.17	4.13										
COC(=O)N[C@H](C(=O)O)C(C)O[Si](C)(C)C(C)(C)C (stereo partly drawn)	> 100	> 100	> 100	> 100	> 100	> 100	> 100	> 100	> 100	> 100										
Cn1c(CO)ccc1-c1ccc(-c2ccc[se]2)[se]1	0.187	> 47.7	> 63.2	55.1	60	50.7		39.5	26.4	27.2										
COc1cc(OC)cc(-c2n/c(=C\c3c(O)[nH]c4ccc(OC)cc34)cc3c2=Nc2ccccc2-3)c1	34	3.51	36.2	34.1	3.26	8.47	9.67	5.21	27.2	53.3	14.8	1.87	16.6	15.6	1.56	2.78	3.45	2.21	5.65	25.8
Nc1[nH]nc2nc3ccccc3nc12	> 100	> 100	> 100	> 100	> 100	> 100	> 100	> 100	87.9	> 100										
COC(=O)c1c(C#N)c(N)nc2c1CCC2	> 100	> 100	> 100	> 100	> 100	> 100		> 100	> 100	> 100										
Clc1ccc(-c2cn3c(nc4ccccc43)c(/C=C/c3ccco3)n2)cc1	96.3	> 100	41.7	> 100	> 100	> 100	> 100	> 100	> 100	> 100										
O=C1CC[C@@]2(O)[C@H]3Cc4ccc(-c5ccccc5)c5c4[C@@]2(CCN3CC2CC2)[C@H]1O5	36.6	33.8	37.3	40.6	31.8	78.9	33.6	> 100	23.7	54										
COC(=O)c1c(O)ccc2[nH]c3c(O)c4ccccc4cc3c12	> 100	32.8	37.5	46.7	> 100	64.3	31.6	78.4	> 100	90										
COC1=CC(=O)CC(C)C12Oc1c(Cl)c(OC)cc(OC)c1C2=O (stereo not drawn)	> 93.8	> 100	> 44.1	> 100	32.5	> 100	> 100	> 100	43.3	> 100										
CCOC(=O)NC(OC)(C(F)(F)F)C(F)(F)F	> 100	> 100	> 100	> 100	> 100	> 100	> 100	> 100	> 100	> 100										
CCCCCCCCCCCC[C@@H](O)[C@H]1CCC([C@H](O)CCCCC(=O)CCCCCCCC2=C[C@H](C)OC2=O)O1 (stereo partly drawn)	> 50	> 50	> 28.8		> 50	> 50	> 50	> 50	> 30.2	> 50										
CN(C)c1ccc(/C=C(\NC(=O)c2ccccc2)C2=NC(CCC(=O)O)C(=O)O2)cc1 (stereo not drawn)	> 50	> 50	> 50	> 50	> 50	> 50	> 50	> 50	> 50	> 50										
CC(C)(C)OC(=O)CN1CCNCCN(CC(=O)OC(C)(C)C)CCNCC1	> 100	> 100	> 100	> 100	> 100		> 100	> 100	> 100	> 100										
NCC(O)CNC(=O)c1ccc(-c2ccc(-c3ccc(C(=O)NCC(O)CN)cc3)o2)cc1 (stereo not drawn)	73.5	96.5	> 100	74.4	54.2	> 100	46.5	> 100	40.1	58										
Cc1ccc(C(=O)Nc2ccc(CP(=O)(O)O)cc2CP(=O)(O)O)cc1NC(=O)Nc1cc(C(=O)Nc2ccc(CP(=O)(O)O)cc2CP(=O)(O)O)ccc1C	> 100	> 100	> 100	> 100	> 100	> 100	> 100	> 100	> 100	> 100										
O=C(CCC=C(S(=O)(=O)c1ccccc1)S(=O)(=O)c1ccccc1)c1ccccc1	31.7	21.7	5.2	40.3	22.9		17.4	63.6	20	> 100										
